One block for each compound: values may come before it.
Tested on: Crude diglycosidase
Assay: Examination of temperature in the conversion into isoflavone aglycons by diglycosidase using soybean materials
Type: biochemical, Penicillium multicolor IAM7153
Parameters: Decomposition efficiency of glycitin family in roasted soy flour / Decomposition efficiency of daidzin family in roasted soy flour / Decomposition efficiency of genistin family in soymilk / Decomposition efficiency of daidzin family in soymilk / Decomposition efficiency of glycitin family in defatted soybean / Decomposition efficiency of daidzin family in defatted soybean: concentration or dose not given beside the values
Conditions: for maximum isolation of aglycons: reaction at 55° C. for 6 hours
How it was run: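 Temperature series (30-80° C.) of crude diglycosidase, diluted to 1.88 AU/mL in 20 mM acetate pH 4.0, acting on roasted soy flour, soymilk, defatted soybean or soy protein concentrate. Samples quenched with ethanol after 0-6 h, centrifuged, filtered and analyzed by HPLC for glycosides versus aglycons.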

[1] = 30° C., heat treatment of enzyme no, reaction time 0 h
[2] = 30° C., heat treatment of enzyme no, reaction time 1 h
[3] = 30° C., heat treatment of enzyme no, reaction time 3 h
[4] = 30° C., heat treatment of enzyme no, reaction time 6 h
[5] = 30° C., heat treatment of enzyme yes, reaction time 6 h
[6] = 45° C., heat treatment of enzyme no, reaction time 0 h
[7] = 45° C., heat treatment of enzyme no, reaction time 1 h
[8] = 45° C., heat treatment of enzyme no, reaction time 3 h
[9] = 45° C., heat treatment of enzyme no, reaction time 6 h
[10] = 45° C., heat treatment of enzyme yes, reaction time 6 h
[11] = 45 °C, heat treatment of enzyme: no, 0 h
[12] = 45 °C, heat treatment of enzyme: no, 1 h
[13] = 45 °C, heat treatment of enzyme: no, 3 h
[14] = 45 °C, heat treatment of enzyme: no, 6 h
[15] = 45 °C, heat treatment of enzyme: yes, 6 h
[16] = 55° C., heat treatment of enzyme no, reaction time 0 h
[17] = 55° C., heat treatment of enzyme no, reaction time 1 h
[18] = 55° C., heat treatment of enzyme no, reaction time 3 h
[19] = 55° C., heat treatment of enzyme no, reaction time 6 h
[20] = 55° C., heat treatment of enzyme yes, reaction time 6 h
[21] = 55 °C, heat treatment of enzyme: no, 0 h
[22] = 55 °C, heat treatment of enzyme: no, 1 h
[23] = 55 °C, heat treatment of enzyme: no, 3 h
[24] = 55 °C, heat treatment of enzyme: no, 6 h
[25] = 55 °C, heat treatment of enzyme: yes, 6 h
[26] = 65° C., heat treatment of enzyme no, reaction time 0 h
[27] = 65° C., heat treatment of enzyme no, reaction time 1 h
[28] = 65° C., heat treatment of enzyme no, reaction time 3 h
[29] = 65° C., heat treatment of enzyme no, reaction time 6 h
[30] = 65° C., heat treatment of enzyme yes, reaction time 6 h
[31] = 65 °C, heat treatment of enzyme: no, 0 h
[32] = 65 °C, heat treatment of enzyme: no, 1 h
[33] = 65 °C, heat treatment of enzyme: no, 3 h
[34] = 65 °C, heat treatment of enzyme: no, 6 h
[35] = 65 °C, heat treatment of enzyme: yes, 6 h
[36] = 80° C., heat treatment of enzyme no, reaction time 0 h
[37] = 80° C., heat treatment of enzyme no, reaction time 1 h
[38] = 80° C., heat treatment of enzyme no, reaction time 3 h
[39] = 80° C., heat treatment of enzyme no, reaction time 6 h
[40] = 80° C., heat treatment of enzyme yes, reaction time 6 h
[41] = 80 °C, heat treatment of enzyme: no, 0 h
[42] = 80 °C, heat treatment of enzyme: no, 1 h
[43] = 80 °C, heat treatment of enzyme: no, 3 h
[44] = 80 °C, heat treatment of enzyme: no, 6 h
[45] = 80 °C, heat treatment of enzyme: yes, 6 h

Compound: O=c1c(-c2ccc(O)cc2)coc2cc(O[C@@H]3O[C@H](CO)[C@@H](O)[C@H](O)[C@H]3O)ccc12 [daidzin]
Decomposition efficiency of daidzin family in concentrated soybean protein [1]: 52.3%
Decomposition efficiency of daidzin family in defatted soybean [1]: 42.2%
Decomposition efficiency of daidzin family in concentrated soybean protein [2]: 29.5%
Decomposition efficiency of daidzin family in defatted soybean [2]: not detected
Decomposition efficiency of daidzin family in concentrated soybean protein [3]: 13.4%
Decomposition efficiency of daidzin family in defatted soybean [3]: not detected
Decomposition efficiency of daidzin family in concentrated soybean protein [4]: 4.0%
Decomposition efficiency of daidzin family in defatted soybean [4]: not detected
Decomposition efficiency of daidzin family in concentrated soybean protein [5]: 54.5%
Decomposition efficiency of daidzin family in defatted soybean [5]: not detected
Decomposition efficiency of daidzin family in soymilk (30 °C, heat treatment of enzyme: no, 0 h): 34.1%
Decomposition efficiency of daidzin family in soymilk (30 °C, heat treatment of enzyme: no, 1 h): not detected
Decomposition efficiency of daidzin family in soymilk (30 °C, heat treatment of enzyme: no, 3 h): not detected
Decomposition efficiency of daidzin family in soymilk (30 °C, heat treatment of enzyme: no, 6 h): not detected
Decomposition efficiency of daidzin family in soymilk (30 °C, heat treatment of enzyme: yes, 6 h): 34.8%
Decomposition efficiency of daidzin family in roasted soy flour (35 °C, heat treatment of enzyme: no, 0 h): 48.6%
Decomposition efficiency of daidzin family in roasted soy flour (35 °C, heat treatment of enzyme: no, 1 h): 11.7%
Decomposition efficiency of daidzin family in roasted soy flour (35 °C, heat treatment of enzyme: no, 3 h): not detected
Decomposition efficiency of daidzin family in roasted soy flour (35 °C, heat treatment of enzyme: no, 6 h): not detected
Decomposition efficiency of daidzin family in roasted soy flour (35 °C, heat treatment of enzyme: yes, 6 h): 50.3%
Decomposition efficiency of daidzin family in concentrated soybean protein [6]: 52.4%
Decomposition efficiency of daidzin family in defatted soybean [6]: 40.5%
Decomposition efficiency of daidzin family in concentrated soybean protein [7]: 10.6%
Decomposition efficiency of daidzin family in defatted soybean [7]: not detected
Decomposition efficiency of daidzin family in concentrated soybean protein [8]: 9.6%
Decomposition efficiency of daidzin family in defatted soybean [8]: not detected
Decomposition efficiency of daidzin family in concentrated soybean protein [9]: 1.7%
Decomposition efficiency of daidzin family in defatted soybean [9]: not detected
Decomposition efficiency of daidzin family in concentrated soybean protein [10]: 94.3%
Decomposition efficiency of daidzin family in defatted soybean [10]: not detected
Decomposition efficiency of daidzin family in roasted soy flour [11]: 48.6%
Decomposition efficiency of daidzin family in soymilk [11]: 33.9%
Decomposition efficiency of daidzin family in roasted soy flour [12]: 3.6%
Decomposition efficiency of daidzin family in soymilk [12]: 6.8%
Decomposition efficiency of daidzin family in roasted soy flour [13]: 2.7%
Decomposition efficiency of daidzin family in soymilk [13]: 6.9%
Decomposition efficiency of daidzin family in roasted soy flour [14]: 5.4%
Decomposition efficiency of daidzin family in soymilk [14]: 6.9%
Decomposition efficiency of daidzin family in roasted soy flour [15]: 49.4%
Decomposition efficiency of daidzin family in soymilk [15]: 36.0%
Decomposition efficiency of daidzin family in concentrated soybean protein [16]: 52.5%
Decomposition efficiency of daidzin family in defatted soybean [16]: 42.2%
Decomposition efficiency of daidzin family in concentrated soybean protein [17]: 1.0%
Decomposition efficiency of daidzin family in defatted soybean [17]: not detected
Decomposition efficiency of daidzin family in concentrated soybean protein [18]: not detected
Decomposition efficiency of daidzin family in defatted soybean [18]: not detected
Decomposition efficiency of daidzin family in concentrated soybean protein [19]: not detected
Decomposition efficiency of daidzin family in defatted soybean [19]: not detected
Decomposition efficiency of daidzin family in concentrated soybean protein [20]: 54.6%
Decomposition efficiency of daidzin family in defatted soybean [20]: not detected
Decomposition efficiency of daidzin family in roasted soy flour [21]: 48.8%
Decomposition efficiency of daidzin family in soymilk [21]: 34.2%
Decomposition efficiency of daidzin family in roasted soy flour [22]: not detected
Decomposition efficiency of daidzin family in soymilk [22]: not detected
Decomposition efficiency of daidzin family in roasted soy flour [23]: not detected
Decomposition efficiency of daidzin family in soymilk [23]: not detected
Decomposition efficiency of daidzin family in roasted soy flour [24]: not detected
Decomposition efficiency of daidzin family in soymilk [24]: not detected
Decomposition efficiency of daidzin family in roasted soy flour [25]: 51.1%
Decomposition efficiency of daidzin family in soymilk [25]: 40.7%
Decomposition efficiency of daidzin family in concentrated soybean protein [26]: 52.3%
Decomposition efficiency of daidzin family in defatted soybean [26]: 40.5%
Decomposition efficiency of daidzin family in concentrated soybean protein [27]: 1.8%
Decomposition efficiency of daidzin family in defatted soybean [27]: not detected
Decomposition efficiency of daidzin family in concentrated soybean protein [28]: 1.7%
Decomposition efficiency of daidzin family in defatted soybean [28]: not detected
Decomposition efficiency of daidzin family in concentrated soybean protein [29]: 1.7%
Decomposition efficiency of daidzin family in defatted soybean [29]: not detected
Decomposition efficiency of daidzin family in concentrated soybean protein [30]: 53.2%
Decomposition efficiency of daidzin family in defatted soybean [30]: 32.8%
Decomposition efficiency of daidzin family in roasted soy flour [31]: 48.6%
Decomposition efficiency of daidzin family in soymilk [31]: 34.1%
Decomposition efficiency of daidzin family in roasted soy flour [32]: not detected
Decomposition efficiency of daidzin family in soymilk [32]: not detected
Decomposition efficiency of daidzin family in roasted soy flour [33]: not detected
Decomposition efficiency of daidzin family in soymilk [33]: not detected
Decomposition efficiency of daidzin family in roasted soy flour [34]: not detected
Decomposition efficiency of daidzin family in soymilk [34]: not detected
Decomposition efficiency of daidzin family in roasted soy flour [35]: 49.7%
Decomposition efficiency of daidzin family in soymilk [35]: 48.7%
Decomposition efficiency of daidzin family in concentrated soybean protein [36]: 52.4%
Decomposition efficiency of daidzin family in defatted soybean [36]: 40.5%
Decomposition efficiency of daidzin family in concentrated soybean protein [37]: 22.6%
Decomposition efficiency of daidzin family in defatted soybean [37]: 7.8%
Decomposition efficiency of daidzin family in concentrated soybean protein [38]: 23.3%
Decomposition efficiency of daidzin family in defatted soybean [38]: 19.2%
Decomposition efficiency of daidzin family in concentrated soybean protein [39]: 25.5%
Decomposition efficiency of daidzin family in defatted soybean [39]: 30.4%
Decomposition efficiency of daidzin family in concentrated soybean protein [40]: 54.5%
Decomposition efficiency of daidzin family in defatted soybean [40]: 60.9%
Decomposition efficiency of daidzin family in roasted soy flour [41]: 48.6%
Decomposition efficiency of daidzin family in soymilk [41]: 33.9%
Decomposition efficiency of daidzin family in roasted soy flour [42]: 3.2%
Decomposition efficiency of daidzin family in soymilk [42]: 8.9%
Decomposition efficiency of daidzin family in roasted soy flour [43]: 4.4%
Decomposition efficiency of daidzin family in soymilk [43]: 23.9%
Decomposition efficiency of daidzin family in roasted soy flour [44]: 12.5%
Decomposition efficiency of daidzin family in soymilk [44]: 42.9%
Decomposition efficiency of daidzin family in roasted soy flour [45]: 51.3%
Decomposition efficiency of daidzin family in soymilk [45]: 69.5%

Decomposition efficiency of genistin family in defatted soybean [2]: 47.4%
Decomposition efficiency of genistin family in defatted soybean [3]: 50.2%
Decomposition efficiency of genistin family in defatted soybean [4]: 46.6%
Decomposition efficiency of genistin family in defatted soybean [5]: 50.2%
Decomposition efficiency of genistin family in defatted soybean [6]: 14.5%
Decomposition efficiency of genistin family in defatted soybean [7]: 49.2%
Decomposition efficiency of genistin family in defatted soybean [8]: 51.8%
Decomposition efficiency of genistin family in defatted soybean [9]: 54.6%
Decomposition efficiency of genistin family in defatted soybean [10]: 50.4%
Decomposition efficiency of genistin family in defatted soybean [17]: 50.5%
Decomposition efficiency of genistin family in defatted soybean [18]: 53.7%
Decomposition efficiency of genistin family in defatted soybean [19]: 56.5%
Decomposition efficiency of genistin family in defatted soybean [20]: 51.9%
Decomposition efficiency of genistin family in defatted soybean [26]: 14.5%
Decomposition efficiency of genistin family in defatted soybean [27]: 49.9%
Decomposition efficiency of genistin family in defatted soybean [28]: 51.8%
Decomposition efficiency of genistin family in defatted soybean [29]: 54.5%
Decomposition efficiency of genistin family in defatted soybean [30]: 30.7%
Decomposition efficiency of genistin family in defatted soybean [36]: 14.5%
Decomposition efficiency of genistin family in defatted soybean [37]: 44.9%
Decomposition efficiency of genistin family in defatted soybean [38]: 43.3%
Decomposition efficiency of genistin family in defatted soybean [39]: 41.3%
Decomposition efficiency of genistin family in defatted soybean [40]: 19.6%
maximum isolation of aglycons (concentrated soybean protein): about 61%
maximum isolation of aglycons (defatted soybean): about 57%
maximum isolation of aglycons (soy flour): about 74%
maximum isolation of aglycons (soymilk): about 80%
Compound: O=c1c(-c2ccc(O)cc2)coc2cc(O)cc(O)c12 [genistein]
